Assay results from paper PMC9354954, “Assessing Bioavailability and Bioactivity of 4-Hydroxythiazolidine-2-Thiones, Newly Discovered Glucosinolate Degradation Products Formed During Domestic Boiling of Cabbage” (Frontiers in Nutrition, 2022).

Assays:
[1] = system: HepG2 cells; assay: Uptake into HepG2 cells (supernatant before and after cell lysis, LC-MS/MS); format: in vitro ADME, human; conditions: for Amount of analyte in supernatant after cell lysis / Amount of analyte in supernatant before cell lysis / Increase due to cell lysis: HepG2, 100 μM, 24 h
Method: Cells originated from a human liver cancer cell line (HepG2) were grown in RPMI-1640 medium + 10% FBS + 1% penicillin/streptomycin under cell culture conditions (37°C and 5% CO2 atmosphere) in T-75 flasks (Sarsted, Nümbrecht, Germany) until a confluence of approximately 50%. This medium and growing conditions were used for all experiments with HepG2 cells in this study. The medium was exchanged by fresh medium for control samples, or by fresh medium containing a concentration of 100 μM allyl HTT or 4-MSOB HTT. Afterward, the cells were incubated for an additional 24 h (each prepared for three cell passages). In the case of cell experiments, all allyl HTT or 4-MSOB HTT spiked media were sterile filtered using Filtropur S 0.2 sterile from Sarstedt AG & Co (Nümbrecht, Germany). After treatment, the medium of HepG2 cells (~80% confluence) was removed and cells were washed three times with 6 mL of PBS. In a second approach performed only for 4-MSOB HTT, treated cells were washed 6 times with 6 mL of PBS. The higher number of washing steps in the case of 4-MSOB HTT was chosen to remove the analyte residues from the former treatment medium more effectively. This enabled to detect a significant increase in analyte amount due to cell lysis when comparing the analyte amount in the supernatant before and after cell lysis, as only three washing steps for allyl HTT and control were not sufficient to detect a significant difference in 4-MSOB HTT amounts due to cell lysis treatment. Afterward, cells were detached from the surface by incubation with 1.5 mL trypsin/EDTA (1 x) for 5 min at 37°C. The cell suspension was transferred into a 2-mL micro reaction vessel and centrifuged for 2 min at 560 g. Then, the cell pellet was washed carefully twice with 1.5 mL of pure water to remove further residues of the analyte spiked medium and to reduce the salt concentration in the samples for LC-MS/MS measurements. For cell lysis, the micro reaction vessels with cell pellet and approximately 60 μL supernatant were sonicated for 15 min in an ultrasonic bath, followed by the addition of 40 μL of MeCN and an additional sonication step for 15 min. Afterward, the cell suspension was centrifuged for 3 min at 4,000 g, and the supernatant, as well as the supernatant before cell lysis, were analyzed by LC-MS/MS. A standard addition method was used, with added amounts of 3 pmol of allyl HTT and 1.2 pmol of 4-MSOB HTT. The mass spectrometry parameters were like QTRAP method 1 (see Section Uptake and Excretion of 4-Hydroxythiazolidine-2-Thiones From a Red Cabbage Meal – A Human Self-Experiment) with an injection volume of 10 μL. The used HPLC method 3 was a gradient of A = water and B = MeCN with 0 to 5 min 2% B, an increase to 14 min up to 98% B, holding for 5 min followed by a decrease to 2% B at 20 min and re-equilibration with 2% B for 4 min, using a flow rate of 300 μL/min, Agilent Zorbax Eclipse Plus C8 column (see Section Stability of 4-Hydroxythiazolidine-2-Thiones in a Stomach Model) and a column oven temperature of 35°C. The given results are the mean of the three biological replicates ± SD. […] The significance of the difference in analyte amount before and after cell lysis was determined by t-test for independent samples per variable using the STATISTICA version 13.5 software (StatSoft, Hamburg, Germany) with a significance level of p ≤ 0.05.

[2] = system: HepG2 cells; assay: Metabolite formation in medium after 24 h incubation with HepG2 cells (HPLC-UV, qToF); format: in vitro ADME, human; conditions: 100 μM, 24 h with HepG2 cells, vs spiked medium without cells
Method: Additionally, the removed non-spiked and spiked medium after 24 h of cell incubation was measured by the UPLC-DAD system (see Section Stability of 4-Hydroxythiazolidine-2-Thiones in a Stomach Model) and HPLC method 2 at 280 ± 2 nm and after 10-fold pre-concentration, using solid-phase extraction (Chromabond®, C18, 3 mL/500 mg, Macherey-Nagel) by an HPLC-DAD-ESI-qToF system (Agilent 1290 Infinity II for the binary pump, Agilent 1290 Infinity for autosampler, degasser, column oven, Agilent 1260 Infinity for DAD detector, and Agilent 1260 Infinity II, for an isocratic pump for adding reference mass solution) using A = water and B = MeCN: 0 to 3 min 2% B, an increase to 14 min up to 98% B, holding for 5.4 min followed by a decrease to 2% B at 20 min, and re-equilibration with 2% B for 4.5 min, using a flow rate of 300 μL/min, Agilent Zorbax Eclipse Plus C8 column (see Section Stability of 4-Hydroxythiazolidine-2-Thiones in a Stomach Model), and a column oven temperature of 35°C. […]

[3] = Estimation of permeability coefficients from plot of Levin data using measured partition coefficients; conditions: for Papp: not told, estimated from plot of Levin data (ref 32) using measured octanol/water partition coefficients, read-out: estimated permeability coefficient
Source text: The log P-value is positive for compounds which are better soluble in the octanol phase, and is negative for compounds which are better soluble in the aqueous phase. To assess if the different uptake behavior of the two HTTs is based on their different polarity, the octanol/water partition coefficients of several compounds were plotted against their permeability coefficients, based on a previous report by Levin ([32]) (Supplementary Figure S5). The obtained plot was used to estimate the permeability coefficients of the two HTTs with 2 × 10^−4 cm/s for allyl HTT and 1.1 × 10^−5 cm/s for 4-MSOB HTT using the measured octanol/water partition coefficients of both compounds. The ratio of both estimated permeability coefficients was 18 and fitted very well to the measured ratios of 27-fold and 10-fold for the higher uptake of allyl HTT compared to 4-MSOB HTT in the experiments with HepG2 and Caco-2 cells. Therefore, the uptake of allyl HTT and 4-MSOB HTT in the in vitro assays can be primarily explained by simple passive diffusion through the cell membrane. Additionally, the fact that in both intestinal model experiments (transport of the analyte from the upper to the lower compartment, as well as from the lower to an upper compartment), the transport velocity was similar, and an equilibrium concentration between both compartments was reached, supporting the hypothesis of passive diffusion without the need of special transporters.
Figure S5: Plot of data reported by Levin (1980) to describe the correlation between the octanol/water partition coefficients of several compounds and their permeability coefficients. The red line and thin black lines were draw by the author and used to estimate the permeability coefficients of 3-allyl-4-hydroxythiazolidine-2-thione (allyl HTT) and 4-hydroxy-3-(4-(methylsulfinyl)butyl) thiazolidine-2-thione (4-MSOB HTT) using their measured octanol-water partition coefficients (black lines).

Compound	Amount of analyte in supernatant after cell lysis ([1]; 3 washing steps)	Amount of analyte in supernatant before cell lysis ([1]; 3 washing steps)	Increase due to cell lysis ([1]; 3 washing steps)	Amount of analyte in supernatant after cell lysis ([1]; 6 washing steps)	Amount of analyte in supernatant before cell lysis ([1]; 6 washing steps)	Increase due to cell lysis ([1]; 6 washing steps)	newly formed metabolites in spiked medium (LC-UV chromatogram) [2]	Papp [3]	measured ratio for the higher uptake of allyl HTT compared to 4-MSOB HTT ([1]; HepG2 cells)	ratio of both estimated permeability coefficients ([3]; allyl HTT vs 4-MSOB HTT)
C[S+]([O-])CCCCN1C(=S)SCC1O (stereo not drawn) [4-MSOB HTT, 4-hydroxy-3-(4-(methylsulfinyl)butyl)thiazolidine-2-thione]	810 ± 140 fmol	760 ± 190 fmol	56 ± 55 fmol	21 ± 5 fmol	1.7 ± 0.3 fmol	20 ± 5 fmol	a new peak was observed	11 ×10⁻⁶ cm/s		
C=CCN1C(=S)SCC1O (stereo not drawn) [allyl HTT, 3-allyl-4-hydroxythiazolidine-2-thione]	1,060 ± 140 fmol	520 ± 170 fmol	540 ± 160 fmol				did not show any additional signals	200 ×10⁻⁶ cm/s	27 fold	18
